Values of other authors in patent US8679103B2, “Two step mammalian biofilm treatment processes and systems” (priority 2008, dated 2014).
Converted amounts (≈) assume the structure as drawn.

Tested on: S. aureus Xen 31
Details: stated as established

For O=C(O)c1cn(C2CC2)c2cc(N3CCNCC3)c(F)cc2c1=O [ciprofloxacin], the minimum inhibitory concentration is listed as 3 µg/mL (≈ 9.05 µM).
